# Reference: PMC6677171, “Subunit interactions and arrangements in the fission yeast Mis16–Mis18–Mis19 complex” (Life Science Alliance, 2019)
# “Also recorded” adds a separate entry of the source. Where no end group is shown, it is not given here.
# Tests used:
# [1] = tested on: Mis16–Mis18–Mis19 complex; experiment: Competition assay by pull-down: disruption of Mis16–Mis18–Mis19 complex; assay type: binding, S. pombe; settings: preformed Mis16–Mis19–Strep–Mis18 complex challenged with peptide, SDS–PAGE
# Source text: It has previously been reported that the interaction between Mis18 and Mis 19 occurs via the N-terminal region of Mis19 binding to the C terminus (coiled-coil) of Mis18 ([Hayashi et al, 2014]). We tried to analyse this interaction in more detail. Given that residues 56–112 of Mis19 are involved interactions with Mis16, we constructed two truncations of Mis19 with half of the remaining N-terminal residues deleted in each case (Mis19^27-C and Mis19^44-C). We first asked if these Mis16–Mis19 constructs could still interact with Mis18 in an affinity pull-down experiment (Figs 6A and S6A). […] We then add Mis18 to the Mis16–Mis19 constructs. […] To further analyse these interactions, we carried out competition assays, challenging preformed Mis16–Mis18–Mis19 complex with peptides from the N terminus of Mis19, analysing the results both by size-exclusion chromatography and affinity pull-down assays. […]
# Figure 6. […] (A) Mis16–Mis18–Mis19 interactions assessed by pull-down. […] Binding of Mis16–Mis19 and Mis19 truncations to Mis18 are assessed by pull-down of Mis19 (right). (B) Mis16–19–18 binding assessed by size-exclusion and competition assays. […]
# All in vitro pull-down assays were performed using purified proteins or protein complexes. […] Input and pull-down elution samples were analysed by SDS–PAGE.
# [2] = tested on: Mis16–Mis18–Mis19 complex; experiment: Competition assay by size-exclusion chromatography: disruption of Mis16–Mis18–Mis19 complex; assay type: binding, S. pombe; settings: preformed complex challenged with peptides from Mis19 N terminus
# Source text: It has previously been reported that the interaction between Mis18 and Mis 19 occurs via the N-terminal region of Mis19 binding to the C terminus (coiled-coil) of Mis18 ([Hayashi et al, 2014]). We tried to analyse this interaction in more detail. Given that residues 56–112 of Mis19 are involved interactions with Mis16, we constructed two truncations of Mis19 with half of the remaining N-terminal residues deleted in each case (Mis19^27-C and Mis19^44-C). We first asked if these Mis16–Mis19 constructs could still interact with Mis18 in an affinity pull-down experiment (Figs 6A and S6A). […] We then add Mis18 to the Mis16–Mis19 constructs. […] To further analyse these interactions, we carried out competition assays, challenging preformed Mis16–Mis18–Mis19 complex with peptides from the N terminus of Mis19, analysing the results both by size-exclusion chromatography and affinity pull-down assays. […] To try and pinpoint the residues that might be responsible for the interaction with Mis18, we carried out a sequence alignment of the Mis19 N terminus and noticed two conserved stretches of residues characterised by an IxxxF pattern (motif 1) and LxxF (motif 2) (Fig 7A). The two motifs are coincident with the two truncations we identified: between residues 1–27 and 28–44, respectively. As the N terminus of Mis19 is likely to be solvent-exposed (from our crystal structure), we reasoned that the conserved hydrophobic residues probably participate in protein–protein interactions. To test this, we carried out another set of competition experiments using the intact Mis16–18–19 complex and peptides carrying mutations in motifs 1 and 2, separately or combined (Fig 7B).
# Figure 6. The Mis19 N terminus binds Mis18. (A) Mis16–Mis18–Mis19 interactions assessed by pull-down. Input proteins are shown on the left. Binding of Mis16–Mis19 and Mis19 truncations to Mis18 are assessed by pull-down of Mis19 (right). (B) Mis16–19–18 binding assessed by size-exclusion and competition assays. Preformed Mis16–18–19 complex was challenged with peptides derived from the N terminus of Mis19 (indicated). […]
# [3] = target: T1, Mis16 (Schizosaccharomyces pombe, UniProt O94244); experiment: ITC binding of peptides to Mis16; set-up: species or system S. pombe; settings: for binding to Mis16 (in words): 30°C, mutants of the Mis19 C-terminal peptide (residues 97–112)
# T1 construct: double-Strep-Tactin tag (TEV protease-cleavable) (N, cleaved yes); made in house; host or cells: insect cells (baculovirus made in Sf21, expression in Hi5)
# T1 sequence (O94244 whole entry, the tested form may be a part): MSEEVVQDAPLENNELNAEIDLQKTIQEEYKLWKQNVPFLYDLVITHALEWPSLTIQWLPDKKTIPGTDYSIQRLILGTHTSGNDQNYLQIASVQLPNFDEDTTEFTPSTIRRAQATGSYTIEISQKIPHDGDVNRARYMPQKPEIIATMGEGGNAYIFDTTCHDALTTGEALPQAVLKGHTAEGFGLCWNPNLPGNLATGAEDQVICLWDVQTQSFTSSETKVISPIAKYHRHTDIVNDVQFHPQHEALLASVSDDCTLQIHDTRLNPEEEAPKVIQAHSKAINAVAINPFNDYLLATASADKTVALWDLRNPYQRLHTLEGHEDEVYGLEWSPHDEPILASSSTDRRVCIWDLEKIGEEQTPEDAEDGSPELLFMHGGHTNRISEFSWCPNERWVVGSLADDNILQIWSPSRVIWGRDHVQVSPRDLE
# Procedure: (§1) ITC experiments were performed at 30°C using an iTC200 (MicroCal). Samples were concentrated in a 50 mM Tris, pH 7.5, 100 mM NaCl, 4% glycerol, and […] buffer. Protein concentrations were determined using a spectrophotometer. The concentration of protein complex in the ITC cell was 26 μM. The lyophilised peptides of histone H4^27–50 or Mis19^97–112 were dissolved in the ITC buffer to a concentration of 260 μM. 3-μl injections were performed at 1,000 rpm stirring speed with an injection spacing of 3 min. The thermodynamic data were processed with the ORIGIN program (MicroCal).
# [4] = target: T1, Mis16; experiment: Co-expression and affinity pull-down/size-exclusion co-purification of Mis19 deletions with Mis16; assay type: binding, S. pombe; settings: co-expressed in insect cells, Strep-Tactin tag on Mis16, gel filtration, SDS–PAGE band
# Source text: Figure 2. Mis16–Mis19 contact regions. (A) Crystal structure of Mis16–Mis19 highlighting the Mis19-binding sites. Three putative binding sites A, B, and C (lighter to darker orange from N terminus to C terminus) are indicated. (B) Schematic of the various deletion constructs of Mis19 are used for binding studies showing the positions of sites A, B, and C. (C) Constructs containing affinity-tagged Mis16 and the Mis19 deletions shown above were co-expressed and purified by affinity pull-down and size-exclusion chromatography. SDS–PAGE gel of peak fractions is shown. Asterisks indicate impurities. (D) Close-up of the A- and C-binding sites. The locations of the kis1-1 (R65) and eic1-1 (F102) t.s. mutant residues are shown.
# The C-terminal interaction of Mis19 with Mis16 (site C in our nomenclature) has been previously described ([An et al, 2018]). […] To test the contribution of the individual sites to the Mis16–Mis19 interaction, various truncated Mis19 constructs were designed, for which site A, […], or both A and C are missing (Fig 2B). Full-length Mis16 and Mis19C (includes sites A, B, and C, residues 52–112), construct 1 (includes site B and C, residues 66–112), construct 2 (includes binding site B, residues 66–99), and construct 3 (includes site A and B, residues 52–99) were co-expressed in insect cells, as the isolated Mis19 truncations cannot be expressed and purified. The complexes were purified using a Strep-Tactin affinity tag on Mis16 and subsequent gel filtration step. All complexes elute from gel filtration as a single species. […] This site is formed by part of the unstructured region of Mis19 running across the top edge of Mis16.
# All proteins were expressed in insect cells using standard procedures. Genes were codon-optimised in all cases (GeneArt). Single protein constructs were cloned in pFastBac vectors (Invitrogen), whereas multi-protein complexes were cloned using the MultiBac system ([Fitzgerald et al, 2006]). The Mis16 protein carried a TEV protease-cleavable double-Strep-Tactin tag at the N terminus for purification purposes. All clones were sequence verified. […]
# [5] = target: T1, Mis16; experiment: ITC competition between H4α1 and Mis19 site C peptides for Mis16; assay type: binding, S. pombe; settings: Mis16 preincubated with one peptide before titration of the second, 30°C, pH 7.5
# Procedure: Figure 3.
# as §1
# [6] = ITC, 50 mM Tris, pH 7.5, 100 mM NaCl, 4% glycerol
substance,measurement,setting,value
Mis19^1–27: peptide from the N terminus of Mis19 (MDLMPLEKARAIEIAFDNVFHNTKIPD),disruption of preformed Mis16–Mis18–Mis19 complex (pull-down),[1],no effect on complex formation
same,disruption of preformed Mis16–Mis18–Mis19 complex (size-exclusion),[2],no effect on complex formation
LHNRVSLRRNVRAVKM [Mis19 F102S],binding to Mis16 (in words),[3]; [6],reduced but did not abolish binding
Mis19^1–44: peptide from the N terminus of Mis19 (MDLMPLEKARAIEIAFDNVFHNTKIPDNLQQFDAILKRLERRRF),disruption of preformed Mis16–Mis18–Mis19 complex (size-exclusion),[2],"effectively disrupts the complex, splitting it into a Mis18-containing and Mis16–Mis19–containing fractions"
LHNRSFLRRNVRAVKM [Mis19 V101S],binding to Mis16 (in words),[3]; [6],reduced but did not abolish binding
"Mis19 V101S F102S R105A: triple mutant of the Mis19 C-terminal peptide (residues 97–112) (LHNRSSLRANVRAVKM; UniProt O42995 97-112, looked up, variant V101S F102S R105A)",binding to Mis16 (in words),[3]; [6],completely abolished the interaction
same,KD,"[3]; ITC, iTC200, 30°C, 50 mM Tris, pH 7.5, 100 mM NaCl, 4% glycerol, 0.5 TCEP, 26 μM in cell, peptide 260 μM, 3-μl injections, 1,000 rpm, spacing 3 min",no binding
Mis19^28–44: peptide from the N terminus of Mis19 (NLQQFDAILKRLERRRF),disruption of preformed Mis16–Mis18–Mis19 complex (pull-down),[1],no effect on complex formation
same,disruption of preformed Mis16–Mis18–Mis19 complex (size-exclusion),[2],no effect on complex formation
"construct 3: Mis19 deletion, includes site A and B, residues 52–99 (PRVYETELLVLRFREFGVKDNHNHPINLHSLRSKSLIRAQGKKLDLHN; UniProt O42995 52-99, looked up, fragment)",association with Mis16,[4],"Mis19 is associated with Mis16; also recorded: still able to interact with Mis16, although rather more weakly than the full-length protein"
LHNRVFLRRNVRAVKM [Mis19α2],competition / displacement of the other peptide from Mis16 (in words),[5],capable of competing out histone H4α1
same,increase in affinity over H4α1,"[3]; ratio of KD values, Mis16, ITC",3.6 fold
Mis19 R105A: point mutant of the Mis19 C-terminal peptide (residues 97–112) (LHNRVFLRANVRAVKM),binding to Mis16 (in words),[3]; [6],substantially reduced binding
"construct 2: Mis19 deletion, includes binding site B, residues 66–99 (EFGVKDNHNHPINLHSLRSKSLIRAQGKKLDLHN; UniProt O42995 66-99, looked up, fragment)",association with Mis16,[4],only Mis16 could be detected
"construct 1: Mis19 deletion, includes site B and C, residues 66–112 (EFGVKDNHNHPINLHSLRSKSLIRAQGKKLDLHNRVFLRRNVRAVKM; UniProt O42995 66-112, looked up, fragment)",association with Mis16,[4],Mis19 is associated with Mis16
